According to patent US4855426A, “Process of preparing 1,5-epoxy-2,3,4,5-tetrahydro-1H-3-benzazepins” (Ortho Pharmaceutical Corporation, priority 1988, dated 1989):
Counter-ions that a name gives are not always drawn. Like-named read-outs stand apart in the source and are kept apart here. Values belong to the molecule of their own block, whether it stands above or below them.

Tests used:
[1] = system: Lesions; test: Cytoprotection, ethanol (necrotizing agent) induced lesions in rats; assay type: in vivo, male Charles River Sprague Dawley derived rats; conditions: oral, 50% EtOH one hour later
Method: The cytoprotective activity of the compounds was tested using a modification of the method of Robert, A., et al., Gastroenterology 77, 433 (1979). Basically, male Charles River Sprague Dawley derived rats weighing between 140 and 220 g were fasted overnight, but allowed water ad libitum. They were deprived of water during the experiment, however. The rats were weighed and pretreated orally with the test compound in a dose volume of 1 ml/kg. One hour later, the necrotizing agent was administered orally, usually 50% EtOH, in a dose volume of 1 ml/animal. After an additional hour, the rats were sacrificed with CO2, the stomachs removed, inflated with distilled water, opened along the greater curvature and laid out on a flat surface. The presence of mucosal bleeding and incidence of lesions were noted, and after wiping off the mucosa the presence of submucosal bleeding and incidence of lesions were also noted.

[2] = system: acid output; test: Gastric Secretion, inhibition of acid output in pylorus ligated rats; assay type: in vivo, male Charles River Sprague Dawley derived rats; conditions: Rattus norvegicus, 4 h, intraduodenal, four hours
Method: (§1) The inhibitory activity of the compounds on acid output was tested using pylorus ligation in a modification of the procedure of Shay, H., et al., Gastroenterology 26, 906 (1954). Basically, male Charles River Sprague Dawley derived rats weighing 150-300 grams were deprived of food but not water for 18-24 hours prior to use. Water was withheld during the experiment, however. The rats were weighed, anesthetized with ether and the pylorus ligated according to the method of Shay et al., supra. Treatment or vehicle control was then administered intraduodenally (i.d.). Rats were housed two/cage and sacrificed with CO2 four hours after ligation. The stomachs were removed, rinsed, and contents emptied into a graduated centrifuge tube. The tubes were centrifuged, the volume of gastric juice recorded, and any samples obviously contaminated by feces, food or blood were eliminated. A 1 ml aliquot of gastric juice was titrated with 0.1N NaOH to a pH of 7.0-7.4. The volume of gastric juice secreted, the acid concentration, and the product of the volume times the concentration, i.e., the total amount of acid secreted, were measured.

[3] = system: Gastric Secretion; test: Gastric Secretion, betazole stimulated, dogs with total gastric fistulas; assay type: in vivo, Female dogs; conditions: gastric fistula dogs
Text: This is a secondary test used to follow-up compounds which have shown gastric antisecretory activity in the four-hour pylorus ligated rat (Example 42). Female dogs were surgically prepared with total gastric fistulas and allowed to recover.

[4] = system: parietal cells; test: Isolated Parietal Cell Assay, 14C-aminopyrine accumulation in histamine stimulated parietal cells; assay type: cell-based, rabbit; conditions: Oryctolagus cuniculus, 20 min, read-out: IC50, inhibition of 14C-AP accumulation in the histamine stimulated parietal cell
Method: The isolated parietal cell assay was conducted using the procedures of Batzri, S., et al., Biochemica et Biophysica Acta 508, 328 (1978) and Soll, A. H., Am. J. Physiol. 238, G366 (1980). Basically, parietal cells were isolated from the fundic mucosa of rabbit stomachs by a four-stage collagenase digestion process. The supernatant fraction from the last two stages of this process contain the individual parietal cells. This cell suspension was centrifuged and reconstituted in a modified Hank's buffer to contain 2-3×10^6 cells/ml. […] The accumulation was stimulated by histamine and was blocked by H2 antagonists. The cells were incubated with 0.5×10^6 cpm ^14 C-AP, with various concentrations of histamine, 1×10^-5 M isobutylmethylxanthine, and the test compound added in a 20 μl volume of buffer or DMSO. The flasks were incubated in a shaking water bath at 37° C. for 20 minutes. Two aliquots were then taken from each flask and cell pellets were collected by centrifugation. The pellets were solubilized with Protosol (New England Nuclear) and radioactivity determined by liquid scintillation spectrometry. Data is presented as the IC50, the concentration of compound required to inhibit ^14 C-AP accumulation in the histamine stimulated parietal cell by 50%.

[5] = system: Pepsin; test: In Vivo Pepsin Assay, radioenzymatic, gastric juice of pylorus ligated rat
Method: as §1
Pepsin activity was measured by a radioenzymatic assay. An aliquot of a 1:1000 dilution of rat gastric juice was incubated with the substrate solution (containing methyl-^14 C-methylated methemoglobin and nonradioactive methemoglobin in 10 mM sodium citrate buffer, pH 3.0) for a period of ten minutes at 37° C. After this time, trichloroacetic acid was added to stop the reaction and to precipitate the unreacted substrate. After removal of the precipitate by centrifugation, an aliquot of the supernatant fraction is quantitated for radioactivity by liquid scintillation spectrometry. Rat gastric juice samples were obtained after drug administration in the pylorus ligated rat (Example 42). Data is presented as the percent inhibition of pepsin activity in drug treated gastric samples compared to enzyme activity observed for control gastric juice samples. […]

[6] = rabbit parietal cells, 37° C., 20 minutes, 1×10^-5 M isobutylmethylxanthine

Compound: FC(F)(F)c1cccc(C23CNCC(O2)c2ccccc23)c1 (stereo not shown) [Example 2, 1,5-Epoxy-1-[(3-trifluoromethyl)phenyl]-1,2,4,5-tetrahydro-3-benzazepin oxalate]
% Inhibition of Lesions, Mucosa ([1]; 25 mg/kg): 56%
% Inhibition of Lesions, Submucosa ([1]; 25 mg/kg): 56%
inhibition in vivo at 25 mg/kg [2]: 71%
% Inhibition of Gastric Secretion ([3]; 2 mg/kg (ig)): 53%
% Inhibition of Gastric Secretion ([3]; 40 mg/kg (route not given)): 75%
IC50 [4]: 3.5 µM

Compound: FC(F)(F)c1cccc(C23CN(CCCN4CCOCC4)CC(O2)c2ccccc23)c1 (stereo not shown) [Example 3, 1,5-Epoxy-3-[N-(3-morpholinopropyl)-1-[(3-trifluoromethyl)phenyl]-1,2,4,5-tetrahydro-3-benzazepin dioxalate]
inhibition in vivo at 25 mg/kg [2]: 48%

IC50 [4, 6]: 4.5 µM
Compound: FC(F)(F)c1cccc(C23CN(CCCOc4cccc(CN5CCCCC5)c4)CC(O2)c2ccccc23)c1 (stereo not shown) [Example 4, 3-[3-[[3-(1-Piperidinyl)methyl]phenoxy]propyl]-1,5-epoxy-1-(3-trifluoromethyl)phenyl-1,2,4,5-tetrahydro-3-benzazepin dioxalate monohydrate]
% Inhibition of Lesions, Mucosa ([1]; 10 mg/kg): 70%
% Inhibition of Lesions, Submucosa ([1]; 10 mg/kg): 80%
% Inhibition of Lesions, Mucosa ([1]; 20 mg/kg): 88%
% Inhibition of Lesions, Submucosa ([1]; 20 mg/kg): 100%
inhibition in vivo at 40 mg/kg [2]: 46%
% Inhibition of Gastric Secretion ([3]; 7.3 mg/kg (iv)): 85%
% Inhibition of Gastric Secretion ([3]; 20 mg/kg (ig)): 48%
% Inhibition of Pepsin Activity ([5]; 40 mg/kg): 52%

IC50 [4, 6]: 1 to 1.3 µM
Compound: CN(C)Cc1ccc(CSCCN2CC3OC(c4cccc(C(F)(F)F)c4)(C2)c2ccccc23)o1 (stereo not shown) [Example 5, 3-[2-[[[5-(Dimethylamino)methyl-2-furanyl]methylthio]ethyl]-1,5-epoxy-1-[3-trifluoromethyl)phenyl-1,2,4,5-tetrahydro-3-benzazepin dioxalate]
% Inhibition of Lesions, Mucosa ([1]; 10 mg/kg): 10%
% Inhibition of Lesions, Submucosa ([1]; 10 mg/kg): 30%
inhibition in vivo at 20 mg/kg [2]: 46%
% Inhibition of Pepsin Activity ([5]; 20 mg/kg): 28-43%

Compound: c1ccc(C23CNCC(O2)c2ccccc23)cc1 (stereo not shown) [Example 7, 1,5-Epoxy-1-phenyl-1,2,4,5-tetrahydro-3-benzazepin]
inhibition in vivo at 50 mg/kg [2]: 68%

IC50 [4, 6]: 3.5 µM
Compound: c1ccc(C23CN(CCCOc4cccc(CN5CCCCC5)c4)CC(O2)c2ccccc23)cc1 (stereo not shown) [Example 11, 3-[3-[[3-(1-Piperidinyl)methyl]methyl]phenoxy]propyl]-1,5-epoxy-1-phenyl-1,2,4,5-tetrahydro-3-benzazepin dioxalate hemihydrate]
% Inhibition of Lesions, Mucosa ([1]; 40 mg/kg): 80%
% Inhibition of Lesions, Submucosa ([1]; 40 mg/kg): 100%
inhibition in vivo at 40 mg/kg [2]: 39%
% Inhibition of Pepsin Activity ([5]; 40 mg/kg): 30%

IC50 [4, 6]: 0.25 to 0.37 µM
Compound: CN(C)Cc1ccc(CSCCN2CC3OC(c4ccccc4)(C2)c2ccccc23)o1 (stereo not shown) [Example 12, 3-[2-[[[5-(Dimethylamino)methyl-2-furanyl]methylthio]ethyl]-1,5-epoxy-1-phenyl-1,2,4,5-tetrahydro-3-benzazepin dioxalate hemihydrate]
% Inhibition of Lesions, Mucosa ([1]; 10 mg/kg): 20%
% Inhibition of Lesions, Submucosa ([1]; 10 mg/kg): 11%

Compound: C=CCN1CC2OC(C1)c1cc(Cl)ccc12 (stereo not shown) [Example 13, 3-Allyl-7-chloro-1,5-epoxy-1,2,4,5-tetrahydro-3-benzazepin oxalate.1/4H2 O]
inhibition in vivo at 50 mg/kg [2]: 33%

Compound: Clc1ccc2c(c1)C1CNCC2O1 (stereo not shown) [Example 14, 7-Chloro-1,5-epoxy-1,2,4,5-tetrahydro-3-benzazepin oxalate.1/4H2 O]
inhibition in vivo at 50 mg/kg [2]: 40%

Compound: c1ccc(CN2CC3OC(C2)c2ccccc23)cc1 [Example 18, 3-Benzyl-1,5-epoxy-1,2,4,5-tetrahydro-3-benzazepin oxalate]
inhibition in vivo at 50 mg/kg [2]: 23%

Compound: c1ccc2c(c1)C1CN(CCCN3CCOCC3)CC2O1 [Example 22, 1,5-Epoxy-3-[N-(3-morpholinopropyl)]-1,2,4,5-tetrahydro-3-benzazepin dioxalate]
inhibition in vivo at 50 mg/kg [2]: 33%

Compound: c1ccc2c(c1)C1CNCC2(C2OCCO2)O1 (stereo not shown) [Example 30, 1-(1,3-Dioxolan-2-yl)-1,5-epoxy-1,2,4,5-tetrahydro-3-benzazepin]
inhibition in vivo at 50 mg/kg [2]: 23%

IC50 [4, 6]: 30 µM
Compound: COc1cc2c(cc1OC)C1CN(CCSCc3ccc(CN(C)C)o3)CC2O1 [Example 36, 3-[2-[[[5-(Dimethylamino)methyl-2-furanyl]methylthio]ethyl]-1,5-epoxy-7,8-dimethoxy-1,2,4,5-tetrahydro-3-benzazepin dioxalate monohydrate]
inhibition in vivo at 20 mg/kg [2]: 26%
